Here are results for 4 compounds from ChEMBL document CHEMBL4808234, “Substituent effects of cyclic naphthalene diimide on G-quadruplex binding and the inhibition of cancer cell growth” (Bioorg Med Chem Lett, 2021).

Data set [1] deals with Telomerase reverse transcriptase (Homo sapiens) (UniProt O14746). The data set can be described thus: Inhibition of telomerase in human A549 cell lysate using TA-core (5'-TAGGGTTAGGGTTAGGGTTAGGG-3') and Rev21G (5'-TCT CGT CTF CCC TAA-3') as primer by PCR stop assay. It counts as subcellular.
Chain of Telomerase reverse transcriptase (Homo sapiens) (O14746 whole entry): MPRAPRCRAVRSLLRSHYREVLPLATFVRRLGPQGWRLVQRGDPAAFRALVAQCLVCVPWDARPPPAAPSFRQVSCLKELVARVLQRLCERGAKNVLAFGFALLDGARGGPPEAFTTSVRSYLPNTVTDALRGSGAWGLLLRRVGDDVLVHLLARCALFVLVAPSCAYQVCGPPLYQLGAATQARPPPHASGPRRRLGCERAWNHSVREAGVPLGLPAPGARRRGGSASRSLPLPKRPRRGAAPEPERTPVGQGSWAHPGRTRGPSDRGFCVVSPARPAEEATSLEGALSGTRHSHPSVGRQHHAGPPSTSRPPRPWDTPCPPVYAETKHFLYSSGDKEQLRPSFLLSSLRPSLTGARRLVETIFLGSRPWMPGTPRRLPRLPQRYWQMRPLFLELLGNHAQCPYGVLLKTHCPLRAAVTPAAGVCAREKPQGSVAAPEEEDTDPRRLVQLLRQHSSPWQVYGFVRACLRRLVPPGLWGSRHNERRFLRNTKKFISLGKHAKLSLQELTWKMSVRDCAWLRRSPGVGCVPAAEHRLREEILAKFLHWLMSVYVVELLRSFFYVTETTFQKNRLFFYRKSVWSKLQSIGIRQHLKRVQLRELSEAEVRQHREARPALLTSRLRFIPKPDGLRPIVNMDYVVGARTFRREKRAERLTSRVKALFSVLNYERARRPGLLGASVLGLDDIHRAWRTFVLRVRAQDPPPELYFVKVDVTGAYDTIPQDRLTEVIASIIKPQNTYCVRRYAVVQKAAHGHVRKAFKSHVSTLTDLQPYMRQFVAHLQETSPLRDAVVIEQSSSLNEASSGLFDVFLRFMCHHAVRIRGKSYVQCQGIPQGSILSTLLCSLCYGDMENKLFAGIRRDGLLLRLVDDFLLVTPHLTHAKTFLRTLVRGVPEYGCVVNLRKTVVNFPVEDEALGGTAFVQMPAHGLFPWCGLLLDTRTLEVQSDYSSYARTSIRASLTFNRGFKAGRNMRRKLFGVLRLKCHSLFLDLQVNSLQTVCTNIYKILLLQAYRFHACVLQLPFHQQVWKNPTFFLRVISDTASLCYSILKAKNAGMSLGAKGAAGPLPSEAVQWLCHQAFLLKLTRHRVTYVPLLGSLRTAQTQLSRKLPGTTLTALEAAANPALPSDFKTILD
For data set [2], the system named is Ca9-22. The data set can be described thus: Growth inhibition of human Ca9-22 cells incubated for 24 hrs by CCK8 assay. The class given is functional, cell-based. For orientation: Tetrazolium assays rely on reduction of a dye to a coloured formazan, in cell work by metabolically active cells.
Data set [3] deals with Quadruplex DNA. The data set can be described thus: Binding affinity to TA-core G4 DNA 5'-TAGGGTTAGGGTTAGGGTTAGGG-3' (unknown origin) assessed as association constant at equilibrium measured under dilution conditions by isothermal titration calorimetry. As to conditions: Homo sapiens. It counts as nucleic-acid assay. In general terms: Isothermal titration calorimetry measures the heat released or taken up as one component is titrated into another.

Data set [4] relates to Quadruplex DNA. Kind of data set: Binding affinity to TA-core G4 DNA 5'-TAGGGTTAGGGTTAGGGTTAGGG-3' (unknown origin) assessed as change in enthalpy measured under dilution conditions by isothermal titration calorimetry. It counts as nucleic-acid assay. As to conditions: Homo sapiens.
The test system of data set [5] is Quadruplex DNA. The data set can be described thus: Binding affinity to TA-core G4 DNA 5'-TAGGGTTAGGGTTAGGGTTAGGG-3' (unknown origin) assessed as change in entropy measured under dilution conditions by isothermal titration calorimetry. It counts as nucleic-acid assay. The settings on record: Homo sapiens.
Data set [6] has as its system Quadruplex DNA. The data set can be described thus: Binding affinity to TA-core G4 DNA 5'-TAGGGTTAGGGTTAGGGTTAGGG-3' (unknown origin) assessed as Gibbs free energy change measured under dilution conditions by isothermal titration calorimetry. The class given is nucleic-acid assay. The settings on record: Homo sapiens.
Data set [7] concerns Quadruplex DNA. The data set can be described thus: Binding affinity to TA-core G4 DNA 5'-TAGGGTTAGGGTTAGGGTTAGGG-3' (unknown origin) assessed as association constant at equilibrium measured under molecular crowding conditions by isothermal titration calorimetry. The class given is nucleic-acid assay. The settings on record: Homo sapiens.
Data set [8] relates to Quadruplex DNA. The data set can be described thus: Binding affinity to TA-core G4 DNA 5'-TAGGGTTAGGGTTAGGGTTAGGG-3' (unknown origin) assessed as change in enthalpy measured under molecular crowding conditions by isothermal titration calorimetry. It counts as nucleic-acid assay. As to conditions: Homo sapiens.
The subject of data set [9] is Quadruplex DNA. Kind of data set: Binding affinity to TA-core G4 DNA 5'-TAGGGTTAGGGTTAGGGTTAGGG-3' (unknown origin) assessed as change in entropy measured under molecular crowding conditions by isothermal titration calorimetry. The class given is nucleic-acid assay. The settings on record: Homo sapiens.
Data set [10] deals with Quadruplex DNA. Kind of data set: Binding affinity to TA-core G4 DNA 5'-TAGGGTTAGGGTTAGGGTTAGGG-3' (unknown origin) assessed as Gibbs free energy change measured under molecular crowding conditions by isothermal titration calorimetry. It counts as nucleic-acid assay. As to conditions: Homo sapiens.
For data set [11], the system named is Quadruplex DNA. The data set can be described thus: Binding affinity to c-myc G4 DNA 5'-TGAGGGTGGGGAGGGTGGGGAA-3' (unknown origin) assessed as association constant at equilibrium measured under molecular crowding conditions by isothermal titration calorimetry. It counts as nucleic-acid assay. The settings on record: Homo sapiens.
Data set [12] has as its system Quadruplex DNA. Kind of data set: Binding affinity to c-myc G4 DNA 5'-TGAGGGTGGGGAGGGTGGGGAA-3' (unknown origin) assessed as change in enthalpy measured under molecular crowding conditions by isothermal titration calorimetry. As to conditions: Homo sapiens. The class given is nucleic-acid assay.
The subject of data set [13] is Quadruplex DNA. The data set can be described thus: Binding affinity to c-myc G4 DNA 5'-TGAGGGTGGGGAGGGTGGGGAA-3' (unknown origin) assessed as change in entropy measured under molecular crowding conditions by isothermal titration calorimetry. It counts as nucleic-acid assay. As to conditions: Homo sapiens.
The test system of data set [14] is Quadruplex DNA. Kind of data set: Binding affinity to c-myc G4 DNA 5'-TGAGGGTGGGGAGGGTGGGGAA-3' (unknown origin) assessed as Gibbs free energy change measured under molecular crowding conditions by isothermal titration calorimetry. The settings on record: Homo sapiens. It counts as nucleic-acid assay.
Data set [15] concerns Quadruplex DNA. The data set can be described thus: Binding affinity to c-myc G4 DNA 5'-TGAGGGTGGGGAGGGTGGGGAA-3' (unknown origin) assessed as association constant at equilibrium measured under dilution conditions by isothermal titration calorimetry. The settings on record: Homo sapiens. The class given is nucleic-acid assay.
Data set [16] deals with Quadruplex DNA. Kind of data set: Binding affinity to c-myc G4 DNA 5'-TGAGGGTGGGGAGGGTGGGGAA-3' (unknown origin) assessed as change in enthalpy measured under dilution conditions by isothermal titration calorimetry. It counts as nucleic-acid assay. As to conditions: Homo sapiens.
Data set [17] relates to Quadruplex DNA. The data set can be described thus: Binding affinity to c-myc G4 DNA 5'-TGAGGGTGGGGAGGGTGGGGAA-3' (unknown origin) assessed as change in entropy measured under dilution conditions by isothermal titration calorimetry. As to conditions: Homo sapiens. It counts as nucleic-acid assay.
Data set [18] has as its system Quadruplex DNA. Kind of data set: Binding affinity to c-myc G4 DNA 5'-TGAGGGTGGGGAGGGTGGGGAA-3' (unknown origin) assessed as Gibbs free energy change measured under dilution conditions by isothermal titration calorimetry. The class given is nucleic-acid assay. As to conditions: Homo sapiens.
In data set [19] the test system is Quadruplex DNA. The data set can be described thus: Binding affinity at TA-core G4 DNA 5'-TAGGGTTAGGGTTAGGGTTAGGG-3' (unknown origin) assessed as circular dichroism changes up to 4.5 uM by spectrophotometric method. It counts as nucleic-acid assay. The settings on record: Homo sapiens; dose microM <=4.5. In general terms: Circular dichroism is the unequal absorption of left and right circularly polarised light.

Data set [20] relates to Quadruplex DNA. The data set can be described thus: Binding affinity at c-myc G4 DNA 5'-TGAGGGTGGGGAGGGTGGGGAA-3' (unknown origin) assessed as circular dichroism changes up to 4.5 uM by spectrophotometric method. It counts as nucleic-acid assay. As to conditions: Homo sapiens; dose microM <=4.5.
Data set [21] has as its system Quadruplex DNA. Kind of data set: Binding affinity at TA-core G4 DNA 5'-TAGGGTTAGGGTTAGGGTTAGGG-3' (unknown origin) assessed as change in melting temperature by circular dichroism spectrophotometric method. The class given is nucleic-acid assay. As to conditions: Homo sapiens.
Data set [22] can be described thus: Growth inhibition of human NHEK cells incubated for 24 hrs by CCK8 assay. The class given is tissue-based.
Data set [23] relates to Bone marrow cell. The data set can be described thus: Growth inhibition of human Bone marrow cell incubated for 24 hrs by CCK8 assay. The class given is cell-based.
Data set [24] has as its system Ca9-22. Kind of data set: Growth inhibition of human Ca9-22 cells at 0.1 uM incubated for 24 hrs by CCK8 assay. The class given is functional. The settings on record: read-out: GI.
Data set [25] is described as follows: Growth inhibition of human NHEK cells at 0.1 uM incubated for 24 hrs by CCK8 assay. The class given is tissue-based. The settings on record: read-out: GI.
The test system of data set [26] is Bone marrow cell. The data set can be described thus: Growth inhibition of human Bone marrow at 0.1 uM cell incubated for 24 hrs by CCK8 assay. The class given is cell-based.

The source made the active and inactive calls. The rule behind the calls is not given here.

The term ΔTm denotes the change in melting temperature against a reference sample. In the case of `CN1CCCNC(=O)c2cccc(c2)C(=O)NCCCN(C)CCCN2C(=O)c3ccc4c5c(ccc(c35)C2=O)C(=O)N(CCC1)C4=O`, the inhibition entry in data set [1] was “Active”. Also, the outcome in the data set on Ca9-22 [2], in the data set on Quadruplex DNA [19] and with Quadruplex DNA [20] was Active. Also, the Ka came to 2.2e+06 M⁻¹ in the data set with Quadruplex DNA [3], 700000 M⁻¹ in the data set on Quadruplex DNA [7], 800000 M⁻¹ in the data set with Quadruplex DNA [11] and 2.4e+06 M⁻¹ in the data set on Quadruplex DNA [15]. In addition, the deltaH in the data set on Quadruplex DNA [4] was -9 kcal/mol; with Quadruplex DNA [8] it was -35 kcal/mol; in the data set on Quadruplex DNA [12], -53 kcal/mol; in the data set on Quadruplex DNA [16] it was -10 kcal/mol. Moreover, the -TdeltaS was 0.36 kcal/mol in the data set on Quadruplex DNA [5], 27 kcal/mol with Quadruplex DNA [9], 45 kcal/mol in the data set on Quadruplex DNA [13] and 1.3 kcal/mol in the data set with Quadruplex DNA [17]. Further, the deltaG in the data set on Quadruplex DNA [6] is -8.6 kcal/mol; in the data set on Quadruplex DNA [10], -8 kcal/mol; in the data set with Quadruplex DNA [14], -8 kcal/mol; in the data set on Quadruplex DNA [18], -8.7 kcal/mol. Also, the ΔTm with Quadruplex DNA [21] was 10 °C.
As to `CN1CCCNC(=O)CC2(CCCCC2)CC(=O)NCCCN(C)CCCN2C(=O)c3ccc4c5c(ccc(c35)C2=O)C(=O)N(CCC1)C4=O`, in [1], the inhibition entry is “Active”. Moreover, the result with Ca9-22 [2], in the data set with Quadruplex DNA [19] and with Quadruplex DNA [20] was Active. Moreover, the Activity result (in [22]; in the data set on Bone marrow cell [23]; with Bone marrow cell [26]) was “Non-Toxic” throughout. The inhibition of growth at 0.1 µM in the data set with Ca9-22 [24] was more than 70%. Besides, the inhibition at 24 h, 0.1 µM in data set [25] amounted to 40%. Moreover, the Ka with Quadruplex DNA [3] came to 1.5e+06 M⁻¹; in the data set on Quadruplex DNA [7], 600000 M⁻¹; with Quadruplex DNA [11], 700000 M⁻¹; with Quadruplex DNA [15], 6.2e+06 M⁻¹. Also, the deltaH was -13 kcal/mol in the data set on Quadruplex DNA [4], -43 kcal/mol in the data set with Quadruplex DNA [8], -20 kcal/mol with Quadruplex DNA [12] and -14 kcal/mol in the data set on Quadruplex DNA [16]. Moreover, the -TdeltaS in the data set on Quadruplex DNA [5] was 4.4 kcal/mol; with Quadruplex DNA [9] it was 35 kcal/mol; in the data set on Quadruplex DNA [13] it was 12 kcal/mol; with Quadruplex DNA [17] it was 4.7 kcal/mol. In addition, the deltaG with Quadruplex DNA [6] was -8.6 kcal/mol; in the data set with Quadruplex DNA [10] it was -7.9 kcal/mol; in the data set with Quadruplex DNA [14], -8 kcal/mol; in the data set with Quadruplex DNA [18], -9.3 kcal/mol. Also, the shift in melting temperature (ΔTm) in the data set on Quadruplex DNA [21] was 10 °C.
As to `CN1CCCNC(=O)CC(C)(C)CC(=O)NCCCN(C)CCCN2C(=O)c3ccc4c5c(ccc(c35)C2=O)C(=O)N(CCC1)C4=O`, in [1], the inhibition result was “Active”. For the same compound, the result in the data set on Ca9-22 [2], in the data set on Quadruplex DNA [19] and with Quadruplex DNA [20] was Active. For the same compound, the Ka in the data set with Quadruplex DNA [3] was found to be 1.7e+06 M⁻¹; in the data set with Quadruplex DNA [7] it was 700000 M⁻¹; in the data set with Quadruplex DNA [11], 400000 M⁻¹; with Quadruplex DNA [15], 2.6e+06 M⁻¹. In addition, the deltaH with Quadruplex DNA [4] was -11 kcal/mol; in the data set with Quadruplex DNA [8] it was -29 kcal/mol; with Quadruplex DNA [12], -48 kcal/mol; in the data set with Quadruplex DNA [16] it was -11 kcal/mol. Also, the -TdeltaS with Quadruplex DNA [5] amounted to 2.5 kcal/mol; with Quadruplex DNA [9] it was 21 kcal/mol; with Quadruplex DNA [13], 41 kcal/mol; with Quadruplex DNA [17], 2.3 kcal/mol. The deltaG in the data set with Quadruplex DNA [6] is -8.5 kcal/mol; in the data set on Quadruplex DNA [10] it was -8 kcal/mol; with Quadruplex DNA [14], -7.6 kcal/mol; in the data set with Quadruplex DNA [18], -8.7 kcal/mol. Further, the thermal shift (ΔTm) with Quadruplex DNA [21] turned out to be 10 °C.
`CN1CCCNC(=O)CCCC(=O)NCCCN(C)CCCN2C(=O)c3ccc4c5c(ccc(c35)C2=O)C(=O)N(CCC1)C4=O`: the inhibition entry in [1] is “Active”. Besides, the outcome in the data set with Ca9-22 [2], in the data set on Quadruplex DNA [19] and in the data set on Quadruplex DNA [20] was Active. Also, the Ka in the data set on Quadruplex DNA [3] is 3.4e+06 M⁻¹; in the data set with Quadruplex DNA [7], 1.9e+06 M⁻¹; in the data set with Quadruplex DNA [11] it was 1.6e+06 M⁻¹; in the data set on Quadruplex DNA [15], 1.1e+06 M⁻¹. The deltaH was -8.5 kcal/mol in the data set on Quadruplex DNA [4], -22 kcal/mol with Quadruplex DNA [8], -20 kcal/mol in the data set on Quadruplex DNA [12] and -11 kcal/mol in the data set with Quadruplex DNA [16]. Also, the -TdeltaS in the data set on Quadruplex DNA [5] was -0.4 kcal/mol; with Quadruplex DNA [9], 14 kcal/mol; with Quadruplex DNA [13], 12 kcal/mol; with Quadruplex DNA [17], 2.9 kcal/mol. Moreover, the deltaG with Quadruplex DNA [6] is -8.9 kcal/mol; in the data set on Quadruplex DNA [10], -8.6 kcal/mol; in the data set on Quadruplex DNA [14] it was -8.5 kcal/mol; with Quadruplex DNA [18] it was -8.1 kcal/mol. Also, the ΔTm with Quadruplex DNA [21] turned out to be 10 °C.
